Converted amounts (≈) assume the structure as drawn.
Key:
[1] = system: Mycobacterium intracellulare; assay: Antimycobacterial activity against Mycobacterium intracellulare; type: functional, organism-based
[2] = system: Mycobacterium tuberculosis; assay: Antimycobacterial activity against Mycobacterium tuberculosis H37Rv; type: functional
[3] = system: Mycobacterium tuberculosis; assay: Antimycobacterial activity against Mycobacterium tuberculosis in presence of ethambutol; type: functional
[4] = system: Mycobacterium tuberculosis; assay: Antimycobacterial activity against Mycobacterium tuberculosis in presence of isoniazid; type: functional
[5] = system: Mycobacterium avium; assay: Antimycobacterial activity against Mycobacterium avium; type: functional
[6] = system: Mycobacterium tuberculosis; assay: Antimycobacterial activity against Mycobacterium tuberculosis; type: functional; settings: Mycobacterium tuberculosis
[7] = system: Mycobacterium kansasii; assay: Antimycobacterial activity against Mycobacterium kansasii; type: functional
[8] = system: Mycobacterium tuberculosis; assay: Antimycobacterial activity against Mycobacterium tuberculosis H37Rv at 50 ug/ml relative to control; type: functional
[9] = system: Mycolicibacterium vaccae; assay: Antimycobacterial activity against Mycobacterium vaccae; type: functional
[10] = system: Mycobacterium tuberculosis; assay: Antimycobacterial activity against Mycobacterium tuberculosis H37Ra; type: functional
[11] = system: Mycobacterium tuberculosis; assay: Antimycobacterial activity against Mycobacterium tuberculosis H37Rv by microplate alamar blue assay; type: functional
[12] = system: Mycobacterium; assay: Antimycobacterial activity against Mycobacterium; type: functional
[13] = system: Mycolicibacterium smegmatis; assay: Antimycobacterial activity against Mycobacterium smegmatis; type: functional; settings: for MIC: Mycolicibacterium smegmatis
[14] = system: Mycolicibacterium phlei; assay: Antimycobacterial activity against Mycobacterium phlei; type: functional
[15] = system: Mycobacterium sp.; assay: Antimycobacterial activity against Mycobacterium sp.; type: functional
[16] = system: Mycolicibacterium fortuitum; assay: Antimycobacterial activity against Mycobacterium fortuitum; type: functional
[17] = system: Mycobacterium tuberculosis; assay: Antimycobacterial activity against Mycobacterium tuberculosis H37Ra by green fluorescent protein microplate assay; type: functional
[18] = system: Mycobacterium tuberculosis; assay: Antimycobacterial activity against Mycobacterium tuberculosis Rv3547; type: functional
[19] = system: Mycobacterium tuberculosis; assay: Antimycobacterial activity against Mycobacterium tuberculosis in presence of banegasine; type: functional
[20] = system: Mycolicibacterium smegmatis; assay: Antimycobacterial activity against Mycobacterium smegmatis in presence of banegasine; type: functional
[21] = system: Mycobacterium avium; assay: Antimycobacterial activity against Mycobacterium avium in presence of banegasine; type: functional
[22] = system: Mycobacterium tuberculosis; assay: Antimycobacterial activity against MDR/XDR Mycobacterium tuberculosis; type: functional
[23] = system: Mycobacterium tuberculosis; assay: Antimycobacterial activity against Mycobacterium tuberculosis rv0678; type: functional

Structure (SMILES): Oc1cccc2c1[nH]c1c(C3=C[C@@]4(O)CC/C=C\CCCCN5CCC3[C@]3(C[C@@H]6/C=C\CCCCN6[C@H]34)C5)nccc12 (some centres undefined)
- IC50 [1]: 3.5 µg/mL (≈ 6.2 µM)
- MIC [2]: 0.4 µg/mL (≈ 0.708 µM)

Structure (SMILES): COc1ccc2cc1Oc1ccc(cc1)C[C@H]1c3cc(c(OC)cc3CCN1C)Oc1c(OC)c(OC)cc3c1[C@H](C2)N(C)CC3 [FANCHININ]
- MIC [3]: 0.25 µg/mL
- MIC [4]: 0.25 µg/mL

Structure (SMILES): c1cncc(-c2ncc(-c3ccc4c(c3)OCO4)o2)c1
- MIC [5]: 25 µg/mL (≈ 93.9 µM)
- MIC [6]: 25 µg/mL (≈ 93.9 µM)
- MIC [7]: 25 µg/mL (≈ 93.9 µM)

Structure (SMILES): COC(=O)[C@@]1(c2cc3ccccc3[nH]2)COCC=C2CN(C)CC[C@@H]21 [6,7-SECO-ANGUSTILOBINE B]
- inhibition at 50 µg/mL [8]: 50%

Structure (SMILES): CC/C=C(\C)C[C@H](C)C[C@H](C)/C(O)=C1/C(=O)N[C@@H](Cc2ccc(O)cc2)C1=O
- MIC [9]: 6.25 µg/mL (≈ 16.2 µM)

Structure (SMILES): O=C([C@H]1[C@H](/C=C/c2ccc3c(c2)OCO3)[C@H](c2ccc3c(c2)OCO3)C=C[C@H]1C(=O)N1CCCCC1)N1CCCCC1
- MIC [10]: 12.5 µg/mL (≈ 21.9 µM)

Structure (SMILES): CCCCCCCCC[C@@H]1C[C@@H]2CC[C@H]3[C@@H](C(=O)O[C@H](C)CCCCCCC[C@@H]4C[C@@H]5CC[C@@H]6C[C@H](C)NC(=N4)N65)[C@@H](C)N=C(N1)N23
- MIC [11]: 3.18 µg/mL (≈ 4.87 µM)

Structure (SMILES): COC1=C(Br)[C@@H](O)[C@]2(C=C1Br)CC(C(=O)NCCCOc1c(Br)cc(C(O)CNC(=O)C3=NO[C@@]4(C=C(Br)C(OC)=C(Br)[C@H]4O)C3)cc1Br)=CO2 (some centres undefined)
- MIC [12]: 8 µg/mL

Structure (SMILES): O=C1C=CC2=NC=CC3c4ccccc4N1C23 (centres undefined)
- MIC [13]: 8 µg/mL (≈ 36 µM)
- MIC [14]: 8 µg/mL (≈ 36 µM)

Structure (SMILES): c1ccc2c(c1)CC1NCCc3cc4c(c-2c31)OCO4 (centres undefined)
- MIC [15]: 12 µg/mL (≈ 45.2 µM)

Structure (SMILES): CC[C@H]1CN(C)[C@H]2Cc3c([nH]c4ccccc34)C(=O)C[C@@H]1[C@@H]2C(=O)OC
- MIC [15]: 128 µg/mL (≈ 361 µM)

Structure (SMILES): COC(=O)[C@@]12COCC=C3CN(CC[C@@H]31)Cc1c2[nH]c2ccccc12
- inhibition at 50 µg/mL [8]: 50%

Structure (SMILES): CC[C@@H]1[C@@H]2CCN3CC[C@@]4(C(=C2C(=O)OC)Nc2ccccc24)[C@@H]13
- inhibition at 50 µg/mL [8]: 50%

Structure (SMILES): CCCCCCc1cc(Cl)c(O)c(C(=O)c2c[nH]c(Cl)c2Cl)c1O
- MIC [16]: 0.05 µg/mL (≈ 0.128 µM)
- MIC [13]: 0.05 µg/mL (≈ 0.128 µM)
- MIC [9]: 0.05 µg/mL (≈ 0.128 µM)

Structure (SMILES): COc1ccc2c(c1)[nH]c1cc(O)c(C=O)cc12
- MIC [6]: 100 µg/mL (≈ 415 µM)
- MIC [10]: 25 µg/mL (≈ 104 µM)

Structure (SMILES): COc1ccc2[nH]c3cc(O)c(C=O)cc3c2c1
- MIC [11]: 14.3 µg/mL (≈ 59.3 µM)

Structure (SMILES): CC(C)=CCOc1ccc(C2=C(Cc3ccccc3)C(=O)N(O)C2=O)cc1
- MIC [14]: 25 µg/mL (≈ 68.8 µM)

Structure (SMILES): CC(C)=CCc1c(O)c(C=O)cc2c1[nH]c1cc(O)ccc12 [7-HYDROXYHEPTAPHYLLINE]
- MIC [17]: 25 µg/mL (≈ 84.6 µM)

Structure (SMILES): O=C1C=CC2=NC=CC3c4cccc(O)c4N1C23 (centres undefined)
- MIC [13]: 8 µg/mL (≈ 33.6 µM)
- MIC [14]: 8 µg/mL (≈ 33.6 µM)

Structure (SMILES): C[C@@]1(COc2ccc(N3CCC(Oc4ccc(OC(F)(F)F)cc4)CC3)cc2)Cn2cc([N+](=O)[O-])nc2O1
- MIC [18]: 0.006 µg/mL (≈ 0.0112 µM)

Structure (SMILES): Oc1ccc2c(c1)CC1NCCc3cc4c(c-2c31)OCO4 (centres undefined)
- MIC [15]: 6 µg/mL (≈ 21.3 µM)

Structure (SMILES): C/C=C1\CN2CC[C@@H]1[C@](CO)(C(=O)OC)c1[nH]c3ccccc3c1C2
- inhibition at 50 µg/mL [8]: 50%

Structure (SMILES): COc1ccc2cc3[n+](cc2c1OC)CCc1cc2c(cc1-3)OCO2.[Cl-] [BERBERINE CHLORIDE]
- MIC [6]: 25 µg/mL
- MIC [13]: 0.78 µg/mL
- MIC [1]: 0.78 µg/mL

Structure (SMILES): O=[N+]([O-])c1c(Cl)cccc1-c1c[nH]cc1Cl [PYRROLNITRIN]
- MIC [5]: 4 µg/mL (≈ 15.6 µM)
- MIC [6]: 4 µg/mL (≈ 15.6 µM)
- IC [19]: 0.075 µg/mL
- MIC [13]: 4 µg/mL (≈ 15.6 µM)
- IC [20]: 0.075 µg/mL
- IC [21]: 0.075 µg/mL

Structure (SMILES): COC(=O)[C@@]12COCC=C3C[N+]([O-])(CC[C@@H]31)Cc1c2[nH]c2ccccc12
- inhibition at 50 µg/mL [8]: 50%

Structure (SMILES): COC(=O)c1cc2c(s1)-c1nccc3c1c(nc1ccccc13)C2=O
- MIC [12]: 0.58 µM

Structure (SMILES): COc1cc2c(cc1O)CC[n+]1cc3c(OC)c(OC)ccc3cc1-2 [JATRORRHIZINE]
- MIC [15]: < 100 µg/mL

Structure (SMILES): CC[C@H]1C[C@H]2C[C@H]3c4[nH]c5ccc(OC)cc5c4CCN(C2)C13
- MIC [15]: 50 µg/mL (≈ 161 µM)

Structure (SMILES): COc1ccc2c(c1)CC1NCCc3cc4c(c-2c31)OCO4 (centres undefined)
- MIC [15]: 12 µg/mL (≈ 40.6 µM)

Structure (SMILES): CC/C=C(\C)C[C@H](C)C[C@H](C)/C(O)=C1/C(=O)N[C@@H]([C@@H](O)c2ccc(O)cc2)C1=O
- MIC [9]: 6.25 µg/mL (≈ 15.6 µM)

Structure (SMILES): O=C(/C=C/C=C/c1ccc2c(c1)OCO2)N1CCCCC1 [PIPERINE]
- MIC [13]: 128 µg/mL (≈ 449 µM)

Structure (SMILES): CC[C@H]1C[C@H]2C[N@]3CCc4c([nH]c5ccc(OC)cc45)[C@](C(=O)OC)(C2)[C@H]13
- MIC [15]: 50 µg/mL (≈ 136 µM)

Structure (SMILES): COC1=C(Br)[C@@H](O)[C@]2(C=C1Br)CC(C(=O)NC[C@@H](O)COc1c(Br)cc(C(O)CNC(=O)C3=NO[C@@]4(C=C(Br)C(OC)=C(Br)[C@H]4O)C3)cc1Br)=CO2 (some centres undefined)
- MIC [12]: 7.9 µg/mL

Structure (SMILES): CC(C)=CCc1c(O)ccc2[nH]c3ccc(C=O)cc3c12 [MICROMELINE]
- MIC [11]: 31.5 µg/mL (≈ 113 µM)

Structure (SMILES): C=C(c1cc2ccccc2[nH]1)[C@H]1CCN(C)C/C1=C\CO
- inhibition at 50 µg/mL [8]: 50%

Structure (SMILES): C1=C\CCCCN2C[C@H]3CCCC/C=C\CCCCN4CC[C@@H]([C@H](CCCCCC/1)C4)[C@H](C3)C2
- IC [13]: 2.5 µg/mL

Structure (SMILES): Cc1ccnc2c1C(=O)c1ccccc1C2=O [CLEISTOPHOLINE]
- MIC [15]: 12.5 µg/mL (≈ 56 µM)

Structure (SMILES): O=C1c2ccccc2-c2nccc3ccnc1c23 [SAMPANGINE]
- MIC [15]: 0.78 µg/mL (≈ 3.36 µM)

Structure (SMILES): COc1ccc2c3c(c4cc(OC)c(OC)cc4c2c1)CN1CCCC1C3 (stereo not drawn) [(+/-)-DEOXYTYLOPHORININE]
- MIC [22]: 6.25 µg/mL (≈ 17.2 µM)

Structure (SMILES): C=C[C@H]1C=C[C@H]2[C@@H]3C[C@H](C)CC[C@H]3[C@@H]3Oc4ccc(cc4)C[C@]4(O)NC(=O)[C@H](C(=O)[C@@H]1[C@H]23)C4N1C(=O)[C@H]2C(=O)[C@H]3[C@@H](C=C)C=C[C@H]4[C@@H]5C[C@H](C)CC[C@H]5[C@H](Oc5ccc(cc5)C[C@@H]2C1=O)[C@@H]43 (some centres undefined) [HIRSUTELLONE F]
- MIC [11]: 3.12 µg/mL (≈ 3.5 µM)

Structure (SMILES): Nc1ccccc1-c1c[nH]c(C(=O)O)c1
- MIC [13]: 0.5 µg/mL (≈ 2.47 µM)

Structure (SMILES): N[C@@H]1CONC1=O [CYCLOSERINE]
- MIC [5]: 3.12 µg/mL (≈ 30.6 µM)
- MIC [6]: 3.12 µg/mL (≈ 30.6 µM)
- MIC [16]: 3.12 µg/mL (≈ 30.6 µM)
- MIC [13]: 3.12 µg/mL (≈ 30.6 µM)
- MIC [2]: 12.5 µg/mL (≈ 122 µM)

Structure (SMILES): O=Cc1cc2c3ccc(O)cc3[nH]c2c2ccoc12
- MIC [17]: 25 µg/mL (≈ 99.5 µM)

Structure (SMILES): O=CNCCCCC(NC(=O)C1COC(c2ccccc2O)=N1)C(=O)O (centres undefined) [TRANSVALENCIN Z]
- MIC [13]: 0.125 µg/mL (≈ 0.344 µM)

Structure (SMILES): CC[C@H]1C=CCC[C@@]2(C[C@@H]3CC[C@@H]4[C@H](C(=O)OCCCCCCCCCCCCCCCC(=O)N(CCCN)CC(O)CCN)[C@]5(CCC[C@@H](C)O5)N=C(N2)N34)O1 (some centres undefined)
- MIC [11]: 46.5 µg/mL (≈ 58 µM)

Structure (SMILES): COc1ccc2[nH]c3ccc(C=O)cc3c2c1
- MIC [11]: 15.6 µg/mL (≈ 69.3 µM)

Structure (SMILES): O=Cc1ccc2[nH]c3ccccc3c2c1
- MIC [6]: 100 µg/mL (≈ 512 µM)
- MIC [11]: 42.3 µg/mL (≈ 217 µM)

Structure (SMILES): CS1(C2=CC(=O)C3=C(C2)c2nccc4cccc(c24)N3)CCC(=O)OC1 (centres undefined)
- MIC [12]: 2.1 µM

Structure (SMILES): COc1cnc2c3c(nccc13)C(=O)c1ccccc1-2
- MIC [15]: 1.56 µg/mL (≈ 5.95 µM)

Structure (SMILES): COC(=O)c1cc2c(o1)-c1nccc3c1c(nc1ccccc13)C2=O
- MIC [12]: 0.61 µM

Structure (SMILES): O=C1CCCN2[C@@H](CC1)C[C@]13CN4CCCC/C=C\CC[C@](O)(C=C(c5nccc6c5[nH]c5c(O)cccc56)[C@@H]1CC4)[C@H]23
- IC50 [1]: 3.5 µg/mL (≈ 6.03 µM)
- MIC [2]: 0.4 µg/mL (≈ 0.689 µM)

Structure (SMILES): CC(C)/N=c1\cc2n(-c3ccc(Cl)cc3)c3ccccc3nc-2cc1Nc1ccc(Cl)cc1 [CLOFAZIMINE]
- MIC [23]: 0.12 µg/mL (≈ 0.253 µM)
